Marks after values point to notes of the source that are not given here.
What was measured:
Assay type in all cases: in vivo
[1] = system: Taxol-induced neuropathic pain; assay: Taxol-induced neuropathic pain in mice, oral route
Protocol: (§1) Study outline in brief: Animals were dosed daily with Taxol for a period of 8 consecutive days (Day 0 to Day 7). On study day 8, prior to drug dosing, the decrease in withdrawal force (tactile allodynia) was verified by applying the von Frey test. After assigning the animals to their treatment groups, the animals were treated daily for a period of 5 days with either vehicle or Formula 1 at different doses. Gabapentin at a dose of 150 mg/kg was dosed only on days of testing (day 8 and day 14).
The activity of Formula 1 following oral administration was assessed using the Taxol model (see Study Outline in section 7.1). […] Gabapentin dosed at 150 mg/kg was active for a period of 4 h post-dosing.

[2] = system: Taxol-induced neuropathic pain; assay: Taxol-induced neuropathic pain in mice, SC administration
Protocol: as §1
Response to heat stimuli was assessed using the hotplate apparatus set at 50ΥC. […] At baseline prior to Taxol dosing, the animals' response time to heat was 28.10±1.60 sec (vehicle-treated group). […] However, it is interesting to note that the beneficial activity of Formula 1 on heat hyperalgesia was more noticeable on study day 14, following repeated daily dosing of the compound, than on study day 8 following a single dose (Table 6).

[3] = system: CCI-induced neuropathic pain; assay: Chronic constriction injury (CCI) model in mice, SC route; conditions: for Dose of maximum activity / Duration of activity at maximum effect / Level of activity (% of maximum effect-baseline) / Peak of activity (T): CCl model, SC, mice
Protocol: Study outline in brief: The sciatic nerve of mice was exposed under anesthesia, and 3 loose ligations were placed around the nerve. Animals were allowed to recover for 3 days. Tactile allodynia (von Frey testing) and thermal (hot at 50±1° C. and cold at 2±1° C.) hyperalgesia were then assessed. Animals that experienced tactile allodynia were assigned to their treatment groups (vehicle, gabapentin and Formula 1 at different doses). Animals were subsequently treated daily for a period of 5 days with either vehicle or Formula 1 at different doses. Gabapentin at a dose of 150 mg/kg was dosed only on days of testing (day 3 and day 7).

[4] = system: CCI-induced neuropathic pain; assay: CCI model in mice, IP route; conditions: CCl model
Source text: IP route of administration was used for initial proof of principle studies with Formula 1. However, the chosen route of administration in most of the studies conducted with Formula 1 was either SC or PO. A brief protocol outline is provided in each section, for the purpose of understanding the results without elaborating on all the detailed procedures.
Table 7 summarizes the activity of Formula 1 in mice models of neuropathic pain following repeated daily administration using different routes of administration. […] Treatment with Formula 1 show activity without CNS effect.

SMILES: NCC1(CC(=O)O)CCCCC1 [Gabapentin, gabapentin, reference compound]
- period of activity post-dosing ([1]; Taxol mice, 150 mg/kg): 4 h
- Dose of maximum activity ([1]; Taxol model, PO, mice): 150 mg/kg
- Duration of activity at maximum effect ([1]; Taxol model, PO, mice): 4 H
- Level of activity (% of maximum effect-baseline) ([1]; Taxol model, PO, mice): 100%
- Peak of activity (T) ([1]; Taxol model, PO, mice): 2-4 H
- response time to heat (50° C.), Mean ([2]; 150 mg/kg, Day 0 Pre-Taxol): 28.5 s
- response time to heat (50° C.), Mean ([2]; 150 mg/kg, Day 8, 1 h): 18.9* sec
- response time to heat (50° C.), Mean ([2]; 150 mg/kg, Day 8, 2 h): 22.5* sec
- response time to heat (50° C.), Mean ([2]; 150 mg/kg, Day 8, 4 h): 16.7 s
- response time to heat (50° C.), Mean ([2]; 150 mg/kg, Day 8, 6 h): 13.8 s
- response time to heat (50° C.), Mean ([2]; 150 mg/kg, Day 8 Pre-dosing): 11.1 s
- response time to heat (50° C.), Mean ([2]; 150 mg/kg, Day 14, 1 h): 25.1* sec
- response time to heat (50° C.), Mean ([2]; 150 mg/kg, Day 14, 2 h): 25.0 s
- response time to heat (50° C.), Mean ([2]; 150 mg/kg, Day 14, 4 h): 25.1* sec
- response time to heat (50° C.), Mean ([2]; 150 mg/kg, Day 14, 6 h): 18.7* sec
- response time to heat (50° C.), Mean ([2]; 150 mg/kg, Day 14 Pre-dosing): 11.2 s
- response time to heat (50° C.), Mean ([2]; 150 mg/kg, Day 17, No dosing): 11.5 s
- period of increase in withdrawal force (von Frey) ([2]; Taxol mice, 150 mg/kg): 4 h
- Dose of maximum activity ([2]; Taxol model, SC, mice): 150 mg/kg
- Duration of activity at maximum effect ([2]; Taxol model, SC, mice): 4 H
- Level of activity (% of maximum effect-baseline) ([2]; Taxol model, SC, mice): 100%
- Peak of activity (T) ([2]; Taxol model, SC, mice): 2-4 H
- response time to cold plate ([3]; CCI mice, 150 mg/kg): increased the response time of the animals to values that were higher than the baseline value
- withdrawal force (von Frey) ([3]; CCI mice, 150 mg/kg): significant, but not complete, reversal
- Dose of maximum activity ([3]; first SC line): 150 mg/kg
- Duration of activity at maximum effect ([3]; first SC line): 4-6 H
- Level of activity (% of maximum effect-baseline) ([3]; first SC line): 64%
- Peak of activity (T) ([3]; first SC line): 2-3 H
- Level of activity (% of maximum effect-baseline) ([3]; second SC line (readout not given)): >100%
- Dose of maximum activity ([3]; second SC line): 150 mg/kg
- Duration of activity at maximum effect ([3]; second SC line): 4-6 H
- Peak of activity (T) ([3]; second SC line): 2-3 H
- Dose of maximum activity [4]: 150 mg/kg
- Duration of activity at maximum effect [4]: 4-6 H
- Peak of activity (T) [4]: 2-3 H
- Level of activity (% of maximum effect-baseline) ([4]; repeated daily administration): 66%

Source: patent US10351566B2, “Therapeutic compounds for pain and synthesis thereof” (priority 2015, dated 2019)
